What was measured:
[1] = system: Aβ formation in H4 APP751 SWE clone 8.20 cells (H4 neuroglioma cell line stably expressing the Swedish mutant of APP751); test: Inhibition of Aβ formation in cultured cells; assay type: cell-based; details: for IC50: H4 APP751 SWE clone 8.20 cells, 19 hours incubation, Aβ40 or Aβ42 not specified
Procedure: Compounds were assayed for Aβ40 or Aβ42 inhibition in cells using H4 APP751 SWE clone 8.20, developed at Bristol-Myers Squibb, an H4 neuroglioma cell line stably expressing the Swedish mutant of APP751. Cells were maintained in log phase through twice weekly passage at a 1:20 dilution. For IC50 determinations, 30 μL cells (1.5×10^4 cells/well) in DMEM media containing 0.0125% BSA (Sigma A8412) were plated directly into 384-well compound plates (Costar 3709) containing 0.1 μL serially diluted compound in DMSO. Following incubation for 19 hours in 5% CO2 at 37° C., plates were briefly centrifuged (1000 rpm, 5 min). A 10 μL aliquot from each well was transferred to a second assay plate (Costar 3709) for Aβ40 measurements. Antibody cocktails were freshly prepared by dilution into 40 mM Tris-HCl (pH 7.4) with 0.2% BSA and added to assay plates. For Aβ42 measurements, antibodies specific for the Aβ42 neoepitope (565, developed at Bristol-Myers Squibb; conjugated to the Wallac reagent (Perkin Elmer)) and the N-terminal sequence of Aβ peptide (26D6, developed at SIBIA/Bristol-Myers Squibb; conjugated to APC (Perkin Elmer)) were mixed and 20 […] of the mixture was added to each well of the incubated cell plate yielding a final concentration of 0.8 ng/well 565 and 75 ng/well 26D6. For the Aβ40 measurements, antibodies specific for the Aβ40 neoepitope (TSD, developed at Bristol-Myers Squibb; conjugated to the Wallac reagent (Perkin Elmer)) and 26D6 as described above were mixed and 20 μL of the mixture was added to the 10 μL aliquots which had been removed previously from the cell plate yielding a final concentration of 1.6 ng/well TSD and 17.5 ng/well 26D6. Assay plates containing antibodies were sealed with aluminum foil and incubated overnight at 4° C. Signal was determined using a Viewlux counter (Perkin Elmer) and IC50 values determined using curve fitting in CurveMaster (Excel Fit based).

plasma Aβ40 = test: Acute rat study, plasma Abeta40 assay (4G8-TSD ELISA); assay type: in vivo; details: female Sprague-Dawley rats, single dose 10 mg/kg, oral gavage
Procedure: (§1) Aβ species from animals were measured using sandwich ELISA assays. A brief discussion of these assays is included here since the details of the epitopes for the individual antibodies determines the Aβ species that are detected. Mouse and rat Aβ share a common Aβ sequence that differs from human Aβ. As a result of these sequence differences, antibodies that recognize the N-terminal region of human Aβ, such as 26D6, bind weakly to rodent Aβ. Likewise, antibodies that bind tightly to rodent Aβ, such as 252, bind weakly to human Aβ. Two assays were developed for measuring rodent Aβ40: 252-TSD and 4G8-TSD. The TSD-4G8 assay can measure not only Aβ40, but other BACE-γ-secretase cleavage products (Aβ11-40) and α-secretase-γ-secretase cleavage products (P3).
(§2) Dosing solutions were made once at the start of the study. Heating at 56° C. and sonication were used to solubilize compound in the dosing solution. All procedures were done in concordance with ACUC guidelines. Terminal blood samples were obtained by cardiac puncture after CO2 euthanasia and collected in EDTA tubes. Plasma was obtained after centrifugation. […]
Plates were coated with TSD antibody and washed as for the brain Aβ40 assay. […] Samples were detected using 4G8-biotin (Signet) diluted 1:8000 in PBS, 0.05% Tween, 0.1% BSA for 1 hour. […] Detection and quantification were as for brain Aβ40 assays. […]

brain Aβ40 = test: Acute rat study, brain Abeta40 assay (252-TSD ELISA); assay type: in vivo; details: female Sprague-Dawley rats, single dose 10 mg/kg, oral gavage
Procedure: as §1, §2
Rat brain (half a hemisphere) was homogenized using a polytron at 4 mL/g in PBS, pH 7.8, 2% CHAPS, complete protease inhibitors (Roche). […] The bound 252-HRP antibody was detected using Pierce Supersignal Pico Chemiluminescent substrate for 10 minutes and quantified a Packard TopCount. […]

Row | SMILES | IC50 [1] [nM] | other results
1 | NC(=O)[C@@H](CC1CC1)N(Cc1ccc(Br)cc1)S(=O)(=O)c1ccc(Cl)s1 [Example 1, (R)-2-(N-(4-bromobenzyl)-5-chlorothiophene-2-sulfonamido)-3-cyclopropylpropanamide] | 1.01 | –
2 | NC(=O)[C@@H](CC1CC1)N(Cc1ccc(Br)cc1F)S(=O)(=O)c1ccc(Cl)s1 [Example 2, (R)-2-(N-(4-bromo-2-fluorobenzyl)-5-chlorothiophene-2-sulfonamido)-3-cyclopropylpropanamide] | 0.52 | –
3 | NC(=O)[C@@H](CC1CC1)N(Cc1ccc(Br)c(F)c1)S(=O)(=O)c1ccc(Cl)s1 [Example 3, (R)-2-(N-(4-bromo-3-fluorobenzyl)-5-chlorothiophene-2-sulfonamido)-3-cyclopropylpropanamide] | 0.76 | –
4 | NC(=O)[C@@H](CC1CC1)N(Cc1cc(F)c(Br)cc1F)S(=O)(=O)c1ccc(Cl)s1 [Example 4, (R)-2-(N-(4-bromo-2,5-difluorobenzyl)-5-chlorothiophene-2-sulfonamido)-3-cyclopropylpropanamide] | 0.82 | –
5 | NC(=O)[C@@H](CC1CC1)N(Cc1ccc(-c2ncon2)cc1)S(=O)(=O)c1ccc(Cl)s1 [Example 5, (R)-2-(N-(4-(1,2,4-oxadiazol-3-yl)benzyl)-5-chlorothiophene-2-sulfonamido)-3-cyclopropylpropanamide] | 0.51 | –
6 | NC(=O)[C@@H](CC1CC1)N(Cc1cc(F)c(Cl)cc1F)S(=O)(=O)c1ccc(Cl)s1 [Example 6, (R)-2-(5-chloro-N-(4-chloro-2,5-difluorobenzyl)thiaphene-2-sulfonamido)-3-cyclopropylpropanamide] | 1.49 | –
7 | NC(=O)[C@@H](CCC(F)(F)F)N(Cc1ccc(-c2ncon2)cc1F)S(=O)(=O)c1ccc(Cl)s1 [Example 7, (R)-2-(5-chloro-N-(2-fluoro-4-(1,2,4-oxadiazol-3-yl)benzyl)thiophene-2-sulfonamido)-5,5,5-trifluoropentanamide] | 0.29 | Aβ40 versus Aβ42 inhibition in cultured cells ([1]; cultured cells): similarly inhibited; plasma Aβ40, level as % of vehicle control (plasma Aβ40): 47 % of vehicle control; brain Aβ40, level as % of vehicle control (brain Aβ40): 41 % of vehicle control
8 | NC(=O)[C@@H](CCC(F)(F)F)N(Cc1ccc(-c2ncco2)cc1F)S(=O)(=O)c1ccc(Cl)s1 [Example 9, (R)-2-(5-chloro-N-(2-fluoro-4-(oxazol-2-yl)benzyl)thiophene-2-sulfonamido)-5,5,5-trifluoropentanamide] | 0.61 | –
9 | NC(=O)[C@@H](CCC(F)(F)F)N(Cc1ccc(Br)cc1)S(=O)(=O)c1ccc(Cl)s1 [Example 10, (R)-2-(N-(4-bromobenzyl)-5-chlorothiophene-2-sulfonamido)-5,5,5-trifluoropentanamnide] | 2.54 | –
10 | NC(=O)[C@@H](CCC(F)(F)F)N(Cc1ccc(Br)cc1F)S(=O)(=O)c1ccc(Cl)s1 [Example 11, (R)-2-(N-(4-bromo-2-fluorobenzyl)-5-chlorothiophene-2-sulfonamido)-5,5,5-trifluoropentanamide] | 1.06 | –
11 | NC(=O)[C@@H](CCC(F)(F)F)N(Cc1ccc(Br)c(F)c1)S(=O)(=O)c1ccc(Cl)s1 [Example 12, (R)-2-(N-(4-bromo-3-fluorobenzyl)-5-chlorothiophene-2-sulfonamido)-5,5,5-trifluoropentanamide] | 2.98 | –

Source: patent US20110071199A1, “Thiophenyl Sulfonamides for the Treatment of Alzheimer's Disease” (Bristol-Myers Squibb Company, priority 2009, published 2011)
